Data taken from PubChem BioAssay (NCI).
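96-well plates; 48 h exposure; 5 concentrations. Endpoints by linear interpolation between flanking doses. Not reached: highest tested concentration assigned. Abbreviation: GI50, concentration required for 50% inhibition of growth. TGI: concentration producing complete growth inhibition.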

Tests used:
Assay in all cases: DTP human tumour cell line panel, 48 h
HOP-62 NSCLC = tested on: HOP-62 NSCLC
IGROV1 ovarian = tested on: IGROV1 ovarian
HCT-15 colon = tested on: HCT-15 colon
NCI-H460 lung = tested on: NCI-H460 lung
CCRF-CEM leukemia = tested on: CCRF-CEM leukemia
OVCAR-8 ovarian = tested on: OVCAR-8 ovarian
SK-MEL-5 melanoma = tested on: SK-MEL-5 melanoma
M14 melanoma = tested on: M14 melanoma
MDA-MB-435 = tested on: MDA-MB-435
SR leukemia = tested on: SR leukemia

Row | Compound | GI50 (HOP-62 NSCLC) | TGI (HOP-62 NSCLC) | GI50 (IGROV1 ovarian) | TGI (IGROV1 ovarian) | GI50 (HCT-15 colon) | TGI (HCT-15 colon) | GI50 (NCI-H460 lung) | TGI (NCI-H460 lung) | GI50 (CCRF-CEM leukemia) | TGI (CCRF-CEM leukemia) | GI50 (OVCAR-8 ovarian) | TGI (OVCAR-8 ovarian) | GI50 (SK-MEL-5 melanoma) | TGI (SK-MEL-5 melanoma) | GI50 (M14 melanoma) | TGI (M14 melanoma) | GI50 (MDA-MB-435) | TGI (MDA-MB-435) | GI50 (SR leukemia) | TGI (SR leukemia)
1 | COc1ccc2c(c1)C(=O)/C(=C/c1ccc([N+](=O)[O-])o1)O2 | 1.82 µM | 4.09 µM | 1.02 µM | 3.58 µM | 0.613 µM | 2.14 µM | 1.75 µM | 3.83 µM | 0.513 µM | 2.19 µM | 1.21 µM | 5.4 µM | 1.58 µM | 3.02 µM | 1.64 µM | 3.32 µM | 1.39 µM | 3.02 µM | 0.198 µM | 1.23 µM
2 | C/C(=N\NC(=S)SCc1ccccc1)c1ccccn1 |  |  |  | 30.2 µM |  | 12.1 µM |  | 10.6 µM |  | < 0.01 µM |  | 0.326 µM |  | 5.56 µM |  | 6.44 µM |  | 18.3 µM |  | 1.77 µM
3 | CCC(=O)Nc1ccc(C)c(-c2ccc(C(=O)NCC3CC3)cc2)c1 | > 25 µM | > 25 µM | > 25 µM | > 25 µM | > 25 µM | > 25 µM | > 25 µM | > 25 µM | > 25 µM | > 25 µM | > 25 µM | > 25 µM | > 25 µM | > 25 µM | > 25 µM | > 25 µM | > 25 µM | > 25 µM | > 25 µM | > 25 µM
4 | C/C(=C\c1cc(C(F)(F)F)n(-c2ccc(N)cc2)n1)[C@@H]1C[C@@H]2O[C@]2(C)CCC[C@H](C)[C@H](O)[C@@H](C)C(=O)C(C)(C)[C@@H](O)CC(=O)O1 | 0.0762 µM | > 11.1 µM | 0.068 µM | > 11.1 µM | 0.0256 µM | > 11.1 µM | 0.00733 µM | > 5.06 µM | 0.0421 µM | > 11.1 µM | 0.0557 µM | > 11.1 µM | 0.0235 µM | > 3.71 µM | 0.0166 µM | 0.096 µM | 0.00227 µM | 0.00567 µM | 0.0225 µM | 2.18 µM
5 | CCCCCCCCCNC(=O)/C=C/c1ccc(O)c(O)c1 | 12.2 µM | 25.1 µM | 1.1 µM | 5.49 µM | 5.25 µM | 19.9 µM | 14.1 µM | 57.1 µM | 0.0426 µM | 1.75 µM | 24 µM | 59.3 µM | 1.34 µM | 10.8 µM | 12.2 µM | 26.7 µM | 7.58 µM | 23.5 µM | 2.76 µM | 21 µM
6 | C=C1C(=O)O[C@H]2[C@H]1CC/C(COC(=O)C(C)c1ccc(CC(C)C)cc1)=C\CC[C@@]1(C)O[C@@H]21 (some centres not stated) | 1.88 µM | 4.26 µM | 1.07 µM | 2.33 µM | 0.871 µM | 2.37 µM | 1.56 µM | 3.16 µM | 0.228 µM | 1.03 µM | 1.32 µM | 3.51 µM | 1.6 µM | 2.96 µM | 0.688 µM | 2.13 µM | 1.49 µM | 2.92 µM | 0.287 µM | 1.86 µM
7 | CC1(C)NCCC[C@]2(C)[C@H]3CC[C@@H]4[C@H]5[C@H](C(=O)/C=C/c6ccccn6)CC[C@]5(CO)CC[C@@]4(C)[C@]3(C)CC[C@@H]12 | 6.23 µM | 29.4 µM |  |  | 1.84 µM | 3.89 µM | 1.78 µM | 3.49 µM | 2.71 µM | 11.4 µM | 2.02 µM | 4.54 µM | 2 µM | 4.07 µM | 1.81 µM | 3.56 µM | 2.11 µM | 4.9 µM | 1.81 µM | 6.27 µM
8 | CC(=O)O[C@H](C[C@H](C(C)C)N(C)C(=O)[C@@H](NC(=O)[C@H]1CCCN1C)C(C)C)c1nc(C(=O)N[C@@H](Cc2ccccc2)C[C@H](C)C(=O)O)c(C)s1 | < 0.00167 µM | > 16.7 µM | 0.00241 µM | > 16.7 µM | 0.00772 µM | > 16.7 µM | < 0.00167 µM | > 16.7 µM | < 0.00167 µM | > 16.7 µM | 0.0033 µM | > 16.7 µM | < 0.00167 µM | 0.0243 µM | < 0.00167 µM | > 16.7 µM | < 0.00167 µM | < 0.00167 µM | < 0.00167 µM | > 16.7 µM
9 | CSC(=S)OC1CC(n2cnc3c(NC(=O)c4ccccc4)ncnc32)OC1CO[Si](C)(C)C(C)(C)C (configuration not stated) |  | 46 µM |  | 44.2 µM |  | > 56.2 µM |  | > 56.2 µM |  | > 51.7 µM |  | > 56.2 µM |  | 18.3 µM |  | > 56.2 µM |  | 27.9 µM |  | > 50 µM
10 | Cc1cc2c(C(N)=O)c(N)n(-c3c(C)ccc(O)c3C)c2nc1C | 13 µM | > 100 µM | 3.04 µM | 12 µM | 5.51 µM | 65.4 µM | 4.77 µM | 31.2 µM | 2.65 µM | > 100 µM | 3.12 µM | 18 µM | 4.89 µM | 26.3 µM | 0.834 µM | 5.83 µM | 1.04 µM | 3.33 µM | 2.47 µM | > 100 µM
11 | O=C(Nc1cccc(-c2ccc(Cl)c(C(F)(F)F)c2)c1)C1CCN(Cc2cccc3cccnc23)CC1 | 1.85 µM | 3.74 µM | 1.55 µM | 2.99 µM | 1.37 µM | 2.79 µM | 1.87 µM | 3.55 µM | 2.19 µM | 5.85 µM | 1.93 µM | 4.19 µM | 1.53 µM | 2.89 µM | 1.64 µM | 3.16 µM | 1.71 µM | 3.1 µM | 1.52 µM | 4.49 µM
12 | N#Cc1cc(S(=O)(=O)Nc2nnc(-c3ccccc3)c(-c3ccccc3)n2)c(SCc2ccccc2)cc1Cl | 28.3 µM | 83.5 µM | 29.7 µM | 83.5 µM | 17.4 µM | 33.3 µM | 38.7 µM | > 100 µM | 7.06 µM | > 100 µM | 28.5 µM | 56.7 µM | 23 µM | 51.4 µM | 27.4 µM | 80.4 µM | 21.2 µM | 45.1 µM | 27.5 µM | > 100 µM
13 | NS(=O)(=O)c1ccc(N(/C=C/C(=O)C(F)(F)F)Cc2ccc(Cl)cc2)cc1 | 20 µM | 53.8 µM |  |  | 31.1 µM | 87.2 µM | 67.9 µM | > 100 µM | 16 µM | 40.3 µM | 24.3 µM | 63.1 µM | 19.2 µM | 38 µM | 21 µM | 43.4 µM | 30.6 µM | 96.5 µM | 20.5 µM | 43.5 µM
14 | CC1=C(/C=C/C(C)=C/C=C/C(C)=C/C(=O)O)C(C)(C)CCC1 |  | 66 µM |  | > 100 µM |  | 70.3 µM |  | 70.5 µM |  | 70.8 µM |  | > 77.9 µM |  | 63.3 µM |  | 71.5 µM |  | > 100 µM |  | > 87.4 µM
15 | O=C(Nc1cccc(Cl)c1)c1cccc(NC2=C(Cl)C(=O)N(Cc3ccccc3)C2=O)c1 | 0.84 µM | 42.8 µM | 3.12 µM | 9.81 µM | 30 µM | > 100 µM | 37 µM | > 100 µM | 7.2 µM | > 100 µM | 56.4 µM | > 100 µM | 34 µM | > 100 µM | 18.3 µM | 67.3 µM | 25.9 µM | 91.3 µM | 2.32 µM | 10.5 µM
16 | Cc1ccc(NC(=O)CSc2nnc3n(Cc4ccccc4)c(=O)c4c(C)c(C(N)=O)sc4n23)cc1 | 21 µM | 56 µM | 37 µM | > 100 µM | > 100 µM | > 100 µM |  |  | 20.1 µM | 46.1 µM | > 100 µM | > 100 µM | > 100 µM | > 100 µM | 26 µM | > 100 µM | > 100 µM | > 100 µM | 16.4 µM | 34.2 µM
17 | OCCNc1nc(Nc2ccc(Cl)c(Cl)c2)nc2ccccc12 | 5.39 µM | 19.5 µM | 5.14 µM | 20 µM | 2.84 µM | 9.34 µM | 3.71 µM | 16.5 µM | 3.07 µM | 18.1 µM | 4.79 µM | 17.6 µM | 4.75 µM | 17.7 µM |  |  | 7.1 µM | 20.2 µM | 2.65 µM | 9.67 µM
18 | CO/N=C(\COc1ccc2oc(-c3ccccc3)cc(=O)c2c1)c1ccc(OC)cc1 | 17 µM | 33 µM | 17.9 µM | 42.8 µM | 30.2 µM | > 100 µM |  |  | 29.7 µM | 74.8 µM | 31.8 µM | > 100 µM | 22.2 µM | 46.7 µM | 21.4 µM | 49.2 µM | 15 µM | 36.9 µM | 11.3 µM | 36.9 µM
19 | CCCN(CCC)c1ccc(/C=N/NC(=O)c2cccnc2)c(OC)c1 | 31.3 µM | > 100 µM | 29.3 µM | > 100 µM | 27.5 µM | > 100 µM | 24.1 µM | 75.4 µM | 25.5 µM | > 100 µM | 29.9 µM | > 100 µM | 14.3 µM | 28.1 µM |  |  | 10.3 µM | 43 µM | 17.1 µM | 59.6 µM
